According to article PMC10349806 (Nature Communications, 2023):
Where “and” joins values, the source holds several entries; their conditions need not be identical. Equal entries are not always repeated.

Molecular target: PfCRT^Dd2 (Plasmodium falciparum, UniProt Q9N623, A220S/I356T/K76T/M74I/N326S/N75E/Q271E/R371I)
Experiment: Drug uptake assay, X. laevis oocytes expressing PfCRT^Dd2
Assay type: cell-based
Conditions: for Kd: KS^CQ; for Vmax: CQ vs protons
Method: Oocytes were obtained as described previously. Briefly, adult (>2 years old) female X. laevis frogs (NASCO) were anesthetized in a cooled solution of ethyl 3-amino benzoate methanesulfonate (0.1%, w/v), followed by a surgical removal of parts of the ovary. The ovary lobes were carefully dissected and small pieces of oocytes were incubated in Ca^2+-free ND96 buffer (96 mM NaCl, 2 mM KCl, 1 mM MgCl2 buffered with 5 mM HEPES/NaOH, pH 7.5) supplemented with collagenase D (0.1%, w/v; Roche), BSA (0.5%, w/v), and 9 mm Na2HPO4 at 18 °C for 14-16 h while gentle shaking. After incubation, the oocytes were carefully washed several times with ND96 buffer (96 mM NaCl, 2 mM KCl, 1.8 mM CaCl2, 1 mM MgCl2 buffered with 5 mM HEPES/NaOH, pH 7.5) supplemented with 100 mg l^−1 gentamycin). Defolliculated and healthy-looking stage V-VI oocytes were manually selected for RNA microinjection. The RNA was generated as following: The codon-optimized sequences of PfCRT variants were cloned into the pSP64T expression vector. After vector linearization using the restriction endonucleases BamHI or SalI (New England Biolabs), transcription was performed using the in vitro SP6 mMessage mMachine Kit (Ambion)[34]. The obtained RNA was kept at −80 °C and diluted with nuclease-free water to a concentration of 0.6 μg μl^−1. Precision-bore glass capillary tubes (3.5-inch glass capillaries; Drummond Scientific Co.) were pulled on a vertical puller (P-87 Flaming/Brown micropipette puller, Sutter Instrument Co.), graduated, and placed on a microinjector (Nanoject II Auto-Nanoliter Injector, Drummond Scientific Co.). 50 nl of nuclease-free water alone (control oocytes) or 50 nl of 0.6 μg μl^−1 RNA were injected under stereomicroscopic control. Injected oocytes were incubated for 46–72 h at 18 °C with twice-daily buffer changes before usage in experiments.
Drug uptake assays were performed as described previously[21],[22],[24],[34]. […] The direction of radio-labeled drug transport is here from the mostly acidic extracellular solution (pH 4.5 or 6.0, as indicated) into the oocyte cytosol (pH ∼ 7.2), which corresponds to the efflux of drug from the acidic digestive vacuole (pH 5.2) into the parasite cytoplasm (pH 7.2). The topology of PfCRT in the oolemma is such that both the N- and C-terminus face the extracellular milieu[3],[22]. In the parasite, the N- and C-terminus face the lumen of the digestive vacuole. […] For determination of the amount of drug uptake for each oocyte, the reaction medium was removed and the oocytes were washed three times with 2 ml of ice-cold ND96 buffer. Each oocyte was individually transferred to a scintillation vial containing 5% sodium dodecyl sulfate (200 μl) for lysis. […] Oocytes that were injected with water instead of RNA were analyzed in parallel, representing the uptake of a drug by diffusion and/or endogenous permeation pathways. The resulting value represents the “background“ level of drug accumulation in oocytes (in-depth discussion in[22]). The specific PfCRT-mediated uptake was determined by subtracting the corresponding background value measured in water-injected oocytes from that of PfCRT-expressing oocytes. In all cases, at least three separate experiments were performed on oocytes from different frogs (biological replicate), and for each condition in an experiment, measurements were made from 10 oocytes per treatment. For pH 5.5, 6.0, and 6.5, ND96 was buffered with 5 mM MES/Tris base. For pH 4.5, 5 mM Homo-Pipes was used as a buffer and 5 mM HEPES for uptake at pH 7.0.

[1] = mixed (partial) model, mean ± SEM
[2] = PfCRTDd2, 50 µM CQ, 1 h, mean ± SEM

Chain of PfCRT^Dd2 (Q9N623 whole entry A220S/I356T/K76T/M74I/N326S/N75E/Q271E/R371I): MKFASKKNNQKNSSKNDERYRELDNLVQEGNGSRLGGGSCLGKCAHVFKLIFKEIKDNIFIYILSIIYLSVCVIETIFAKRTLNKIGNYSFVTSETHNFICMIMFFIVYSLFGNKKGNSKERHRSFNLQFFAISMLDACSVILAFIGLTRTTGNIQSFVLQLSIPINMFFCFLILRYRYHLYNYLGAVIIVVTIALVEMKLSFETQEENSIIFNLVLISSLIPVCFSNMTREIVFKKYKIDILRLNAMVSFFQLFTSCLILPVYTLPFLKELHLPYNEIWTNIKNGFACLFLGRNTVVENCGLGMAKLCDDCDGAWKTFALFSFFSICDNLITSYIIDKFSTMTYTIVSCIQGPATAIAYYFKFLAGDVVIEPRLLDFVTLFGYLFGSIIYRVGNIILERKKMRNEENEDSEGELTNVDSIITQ

CCN(CC)CCCC(C)Nc1ccnc2cc(Cl)ccc12 (centres unmarked) [CQ, chloroquine]
v-1 pH 6.0 (500 µM CQ, Lineweaver-Burk): 0.05 (pmol oocyte-1 h-1)-1
inflection point in the weakly acidic pH range (CQ transport vs pH): ~ 5.2 pH
PfCRTDd2 transport activity pH 4.5 (CQ uptake, X. laevis oocytes expressing PfCRTDd2, pH 4.5, individual replicates (Fig 6b)): 0.81 pmol oocyte-1 h-1 and 1.13 pmol oocyte-1 h-1 and 0.91 pmol oocyte-1 h-1 and 1.51 pmol oocyte-1 h-1 and 1.64 pmol oocyte-1 h-1 and 1.57 pmol oocyte-1 h-1
PfCRTDd2 transport activity pH 4.5 (CQ uptake, X. laevis oocytes expressing PfCRTDd2, pH 4.5, individual replicates (source data Fig 1d left)): 0.89 pmol oocyte-1 h-1 and 0.81 pmol oocyte-1 h-1 and 1.13 pmol oocyte-1 h-1 and 0.91 pmol oocyte-1 h-1 and 1.51 pmol oocyte-1 h-1 and 1.64 pmol oocyte-1 h-1
PfCRTDd2 transport activity pH 6.0 (CQ uptake, X. laevis oocytes expressing PfCRTDd2, pH 6.0, individual replicates (Fig 6b)): 3.69 pmol oocyte-1 h-1 and 3.79 pmol oocyte-1 h-1 and 3.00 pmol oocyte-1 h-1 and 3.40 pmol oocyte-1 h-1 and 3.90 pmol oocyte-1 h-1 and 6.11 pmol oocyte-1 h-1 and 4.28 pmol oocyte-1 h-1 and 5.58 pmol oocyte-1 h-1 and 6.47 pmol oocyte-1 h-1 and 3.37 pmol oocyte-1 h-1 and 3.28 pmol oocyte-1 h-1 and 4.53 pmol oocyte-1 h-1 and 3.68 pmol oocyte-1 h-1 and 5.95 pmol oocyte-1 h-1 and 11.50 pmol oocyte-1 h-1 and 6.00 pmol oocyte-1 h-1 and 4.23 pmol oocyte-1 h-1 and 6.19 pmol oocyte-1 h-1 and 4.62 pmol oocyte-1 h-1 and 6.53 pmol oocyte-1 h-1
PfCRTDd2 transport activity pH 6.0 (CQ uptake, X. laevis oocytes expressing PfCRTDd2, pH 6.0, individual replicates (source data Fig 1d left)): 5.87 pmol oocyte-1 h-1 and 4.37 pmol oocyte-1 h-1 and 4.87 pmol oocyte-1 h-1 and 4.94 pmol oocyte-1 h-1 and 5.55 pmol oocyte-1 h-1 and 3.80 pmol oocyte-1 h-1 and 3.69 pmol oocyte-1 h-1 and 3.79 pmol oocyte-1 h-1 and 3.00 pmol oocyte-1 h-1 and 3.40 pmol oocyte-1 h-1 and 3.90 pmol oocyte-1 h-1 and 6.11 pmol oocyte-1 h-1 and 4.28 pmol oocyte-1 h-1 and 5.58 pmol oocyte-1 h-1 and 6.47 pmol oocyte-1 h-1 and 3.37 pmol oocyte-1 h-1 and 3.28 pmol oocyte-1 h-1 and 4.53 pmol oocyte-1 h-1 and 3.68 pmol oocyte-1 h-1 and 5.95 pmol oocyte-1 h-1
PfCRTDd2 transport activity pH 4.5 with preincubation 1 h at pH 4.5 (CQ uptake, independent samples): 5.80 pmol oocyte-1 h-1 and 5.85 pmol oocyte-1 h-1 and 2.93 pmol oocyte-1 h-1
PfCRTDd2 transport activity pH 4.5 without preincubation (CQ uptake, independent samples): 5.79 pmol oocyte-1 h-1 and 5.26 pmol oocyte-1 h-1 and 2.99 pmol oocyte-1 h-1
Kd [1]: 320 ± 100 µM
Kd (noncompetitive (partial) model, called KM, mean ± SEM): 220 ± 25 µM
Activity at pH 4.5 [2]: 1.20 ± 0.10 pmol h-1 oocyte-1
Activity at pH 6.0 [2]: 5.05 ± 0.23 pmol h-1 oocyte-1
R-value (PfCRTDd2, CQ transport at pH 4.5 / pH 6.0): ~ 0.2 and 0.24 ± 0.01
Vmax ± SEM (PfCRT^Dd2, pH 4.5): 14 ± 2 pmol h^−1 oocyte ^−1
Vmax ± SEM (PfCRT^Dd2, pH 6.0): 32 ± 2 pmol h^−1 oocyte ^−1
PfCRTDd2 R-value (R-value from transport activity at pH 4.5 and pH 6.0, individual replicates (source data Fig 1d left)): 0.23 and 0.27 and 0.25
PfCRTDd2 R-value (R-value from transport activity at pH 4.5 and pH 6.0, oocytes expressing PfCRTDd2, source data Fig 1d left): 0.25
pH of maximal CQ transport activity (bell-shaped curve, pH 4.5 to 7.0, 50 µM CQ): 6.2 ± 0.3 pH
CQ transport activity, oocytes pre-treated 1 h at pH 4.5 vs untreated (in words): no significant differences
Vmax [1]: 45 ± 9 pmol h^−1 oocyte^−1
α (mixed (partial) model, factor by which KS values change when other substrate is bound): 0.53 ± 0.26
β (mixed (partial) model, factor by which Vmax is affected by the inhibitor): 0.27 ± 0.06
Vmax (noncompetitive (partial) model, mean ± SEM): 40 ± 4 pmol h^−1 oocyte^−1
β (noncompetitive (partial) model, factor by which Vmax is affected by bound proton): 0.36 ± 0.02
PfCRTDd2 transport activity pH 4.5 (pH 4.5, individual replicates (Fig 6a)): 0.82 pmol oocyte-1 h-1 and 2.03 pmol oocyte-1 h-1 and 1.25 pmol oocyte-1 h-1 and 0.75 pmol oocyte-1 h-1 and 1.02 pmol oocyte-1 h-1 and 0.89 pmol oocyte-1 h-1 and 0.81 pmol oocyte-1 h-1 and 1.13 pmol oocyte-1 h-1 and 0.91 pmol oocyte-1 h-1 and 1.51 pmol oocyte-1 h-1 and 1.64 pmol oocyte-1 h-1 and 1.57 pmol oocyte-1 h-1 and 1.05 pmol oocyte-1 h-1 and 1.43 pmol oocyte-1 h-1
PfCRTDd2 transport activity pH 4.5 (pH 4.5, individual replicates, Fig 6b): 0.82 pmol oocyte-1 h-1 and 2.03 pmol oocyte-1 h-1 and 1.25 pmol oocyte-1 h-1 and 0.75 pmol oocyte-1 h-1 and 1.02 pmol oocyte-1 h-1 and 0.89 pmol oocyte-1 h-1 and 1.05 pmol oocyte-1 h-1 and 1.43 pmol oocyte-1 h-1
PfCRTDd2 transport activity pH 4.5 (pH 4.5, oocytes expressing PfCRTDd2, individual replicate values, source data Fig 1d left): 1.57 pmol oocyte-1 h-1
PfCRTDd2 transport activity pH 4.5 (pH 4.5, single replicates, Fig 1d left): 2.03 pmol oocyte-1 h-1 and 1.25 pmol oocyte-1 h-1 and 0.75 pmol oocyte-1 h-1 and 1.02 pmol oocyte-1 h-1 and 1.05 pmol oocyte-1 h-1 and 1.43 pmol oocyte-1 h-1 and 0.82 pmol oocyte-1 h-1
PfCRTDd2 R-value (pH 4.5 vs pH 6.0, Fig 1d left): 0.27 and 0.30 and 0.19 and 0.23 and 0.17 and 0.15
PfCRTDd2 transport activity pH 6.0 (pH 6.0, individual replicates, Fig 6b): 5.64 pmol oocyte-1 h-1 and 4.84 pmol oocyte-1 h-1 and 7.93 pmol oocyte-1 h-1 and 4.17 pmol oocyte-1 h-1 and 7.55 pmol oocyte-1 h-1 and 4.19 pmol oocyte-1 h-1 and 4.00 pmol oocyte-1 h-1 and 4.20 pmol oocyte-1 h-1 and 4.01 pmol oocyte-1 h-1 and 4.51 pmol oocyte-1 h-1 and 5.87 pmol oocyte-1 h-1 and 4.37 pmol oocyte-1 h-1 and 4.87 pmol oocyte-1 h-1 and 4.94 pmol oocyte-1 h-1 and 5.55 pmol oocyte-1 h-1 and 3.80 pmol oocyte-1 h-1 and 4.33 pmol oocyte-1 h-1 and 4.86 pmol oocyte-1 h-1 and 6.59 pmol oocyte-1 h-1 and 6.15 pmol oocyte-1 h-1 and 4.02 pmol oocyte-1 h-1 and 5.29 pmol oocyte-1 h-1 and 5.21 pmol oocyte-1 h-1
PfCRTDd2 transport activity pH 6.0 (pH 6.0, oocytes expressing PfCRTDd2, individual replicate values, source data Fig 1d left): 11.50 pmol oocyte-1 h-1 and 6.00 pmol oocyte-1 h-1 and 4.23 pmol oocyte-1 h-1 and 6.19 pmol oocyte-1 h-1 and 4.62 pmol oocyte-1 h-1 and 6.53 pmol oocyte-1 h-1
PfCRTDd2 transport activity pH 6.0 (pH 6.0, single replicates, Fig 1d left): 5.64 pmol oocyte-1 h-1 and 4.84 pmol oocyte-1 h-1 and 7.93 pmol oocyte-1 h-1 and 4.17 pmol oocyte-1 h-1 and 7.55 pmol oocyte-1 h-1 and 4.19 pmol oocyte-1 h-1 and 4.00 pmol oocyte-1 h-1 and 4.20 pmol oocyte-1 h-1 and 4.01 pmol oocyte-1 h-1 and 4.51 pmol oocyte-1 h-1 and 4.33 pmol oocyte-1 h-1 and 4.86 pmol oocyte-1 h-1 and 6.59 pmol oocyte-1 h-1 and 6.15 pmol oocyte-1 h-1 and 4.02 pmol oocyte-1 h-1 and 5.29 pmol oocyte-1 h-1 and 5.21 pmol oocyte-1 h-1
PfCRTDd2 R-value (ratio of activity pH 4.5 / pH 6.0): 0.15 and 0.27 and 0.30 and 0.19 and 0.23 and 0.17
PfCRTDd2 R-value (ratio of transport activity pH 4.5 to pH 6.0, individual replicates (Fig 6b)): 0.27 and 0.25
PfCRTDd2 R-value (transport activity pH 4.5 relative to pH 6.0 (Fig 6a)): 0.15 and 0.27 and 0.30 and 0.19 and 0.23 and 0.25 and 0.17
